Measurements from patent US5059597A, “7-(4-oxa or 4-thia-2,7-diazabicyclo[3.3.0]oct-2-en-3-yl)-3-quinolone-and-naphthyrido ne-carboxylic acid derivatives as antibacterial agents and feed additives” (Bayer Aktiengesellschaft, priority 1988, dated 1991).
In brackets after ≈: the same amount, converted by molar mass.

Experiments:
[1] = tested on: Proleus mirabilis 8223; test: MIC, agar dilution test (Denley multipoint inoculator; Iso-sensitest agar); type: cell-based; details: 37° C., about 20 hours, about 10^4 colony-forming particles
Experimental: (§1) The minimum inhibitory concentrations (MIC) were determined by the series dilution method on Iso-Sensitest agar (Oxoid). For each test substance, a series of agar plates which contained concentrations of the active compound which decreased by a dilution factor of two each time was prepared. The agar plates were inoculated with a multipoint inoculator (Denley). Overnight cultures of the pathogens which had first been diluted so that each inoculation point contained about 10^4 colony-forming particles were used for the inoculation. The inoculated agar plates were incubated at 37° C. and the germ growth was read off after about 20 hours. The MIC value (μg/ml) indicates the lowest active compound concentration at which no germ growth was to be detected with the naked eye.
(§2) The MIC values of some of the compounds according to the invention are shown in comparison with ciprofloxacin in the following table.
(§3) MIC values (mg/l) determined by the agar dilution
(§4) test (Denley multipoint inoculator; Iso-sensitest agar)

[2] = tested on: Enterococcus faecalis 9790; test: as above; type: cell-based; details: Enterococcus faecalis 9790; 37° C., about 20 hours, about 10^4 colony-forming particles; read-out: MIC values
Experimental: as §1, §2, §3, §4

[3] = tested on: Proleus vulgaris 1017; test: as above; type: cell-based; details: 37° C., about 20 hours, about 10^4 colony-forming particles
Experimental: as §1, §2, §3, §4

[4] = tested on: Escherichia coli Neumann; test: as above; type: cell-based; details: 37° C., about 20 hours, about 10^4 colony-forming particles
Experimental: as §1, §2, §3, §4

[5] = tested on: Staphylococcus aureus FK 422; test: as above; type: cell-based; details: FK422; Staphylococcus aureus FK 422; 37° C., about 20 hours, about 10^4 colony-forming particles; read-out: MIC values
Experimental: as §1, §2, §3, §4

[6] = tested on: Enterococcus faecalis 27101; test: as above; type: cell-based; details: Enterococcus faecalis 27101; 37° C., about 20 hours, about 10^4 colony-forming particles; read-out: MIC values
Experimental: as §1, §2, §3, §4

[7] = tested on: Providencia stuartei 12052; test: as above; type: cell-based; details: 37° C., about 20 hours, about 10^4 colony-forming particles
Experimental: as §1, §2, §3, §4

[8] = tested on: Morganella morganii 932; test: as above; type: cell-based; details: 37° C., about 20 hours, about 10^4 colony-forming particles
Experimental: as §1, §2, §3, §4

[9] = tested on: Staphylococcus aureus 133; test: as above; type: cell-based; details: Staphylococcus aureus 133; 37° C., about 20 hours, about 10^4 colony-forming particles; read-out: MIC values
Experimental: as §1, §2, §3, §4

[10] = tested on: Staphylococcus aureus 1756; test: as above; type: cell-based; details: Staphylococcus aureus 1756; 37° C., about 20 hours, about 10^4 colony-forming particles; read-out: MIC values
Experimental: as §1, §2, §3, §4

[11] = Solubility in water; type: physicochemical; details: mesylate salt

SMILES | MIC [1] | MIC [2] | MIC [3] | MIC [4] | MIC [5] | MIC [6] | MIC [7] | MIC [8] | MIC [9] | MIC [10] | solubility in water [11]
CN1CCOC2CN(c3cc4c(cc3F)c(=O)c(C(=O)O)cn4C3CC3)CC21 (stereo not shown) [Example 10, 1-cyclopropyl-6-fluoro-1,4-dihydro-7-(5-methyl-2-oxa-5,8-diazabicyclo[4.3.0]non-8-yl)-4-oxo-3-quinolinecarboxylic acid] | 16 µg/mL (≈ 41.3 µM) | 2 µg/mL (≈ 5.16 µM) | 1 µg/mL (≈ 2.58 µM) | 0.125 µg/mL (≈ 0.323 µM) | 0.125 µg/mL (≈ 0.323 µM) | 2 µg/mL (≈ 5.16 µM) | 64 µg/mL (≈ 165 µM) | 0.5 µg/mL (≈ 1.29 µM) | 0.125 µg/mL (≈ 0.323 µM) | 0.125 µg/mL (≈ 0.323 µM) | –
CN1CCCC2CN(c3c(F)cc4c(=O)c(C(=O)O)cn(C5CC5)c4c3F)CC21 (stereo not shown) [Example 13, 1-cyclopropyl-6,8-difluoro-1,4-dihydro-7-(2-methyl-2,8-diazabicyclo[4.3.0]non-8-yl)-4-oxo-3-quinolinecarboxylic acid] | 1 µg/mL (≈ 2.48 µM) | 0.25 µg/mL (≈ 0.62 µM) | 0.03 µg/mL (≈ 0.0744 µM) | 0.06 µg/mL (≈ 0.149 µM) | 0.06 µg/mL (≈ 0.149 µM) | 0.125 µg/mL (≈ 0.31 µM) | 2 µg/mL (≈ 4.96 µM) | 0.125 µg/mL (≈ 0.31 µM) | 0.06 µg/mL (≈ 0.149 µM) | 0.06 µg/mL (≈ 0.149 µM) | –
CN1CCCC2CN(c3cc4c(cc3F)c(=O)c(C(=O)O)cn4C3CC3)CC21 (stereo not shown) [Example 14, 1-cyclopropyl-6-fluoro-1,4-dihydro-7-(2-methyl-2,8-diazabicyclo[4.3.0]non-8-yl)-4-oxo-3-quinolinecarboxylic acid] | 4 µg/mL (≈ 10.4 µM) | 0.5 µg/mL (≈ 1.3 µM) | 0.5 µg/mL (≈ 1.3 µM) | 0.06 µg/mL (≈ 0.156 µM) | 0.25 µg/mL (≈ 0.649 µM) | 0.25 µg/mL (≈ 0.649 µM) | 4 µg/mL (≈ 10.4 µM) | 0.25 µg/mL (≈ 0.649 µM) | 0.25 µg/mL (≈ 0.649 µM) | 0.25 µg/mL (≈ 0.649 µM) | –
O=C(O)c1cn(C2CC2)c2c(F)c(N3CC4CCCNC4C3)c(F)cc2c1=O (stereo not shown) [Example 15, 1-cyclopropyl-7-(2,8-diazabicyclo[4.3.0]non-8-yl)-6,8-difluoro-1,4-dihydro-4-oxo-3-quinolinecarboxylic acid] | 0.5 µg/mL (≈ 1.28 µM) | – | 0.03 µg/mL (≈ 0.077 µM) | ≤ 0.015 µg/mL | 0.03 µg/mL (≈ 0.077 µM) | 0.03 µg/mL (≈ 0.077 µM) | 1 µg/mL (≈ 2.57 µM) | 0.03 µg/mL (≈ 0.077 µM) | 0.03 µg/mL (≈ 0.077 µM) | 0.03 µg/mL (≈ 0.077 µM) | –
O=C(O)c1cn(C2CC2)c2cc(N3CC4CCNC4C3)c(F)cc2c1=O (stereo not shown) [Example 16, 1-cyclopropyl-7-(2,7-diazabicyclo[3.3.0]oct-7-yl)-6-fluoro-1,4-dihydro-4-oxo-3-quinolinecarboxylic acid] | 4 µg/mL (≈ 11.2 µM) | 0.5 µg/mL (≈ 1.4 µM) | 0.06 µg/mL (≈ 0.168 µM) | 0.06 µg/mL (≈ 0.168 µM) | 0.125 µg/mL (≈ 0.35 µM) | 0.5 µg/mL (≈ 1.4 µM) | 32 µg/mL (≈ 89.5 µM) | 0.06 µg/mL (≈ 0.168 µM) | 0.125 µg/mL (≈ 0.35 µM) | 0.125 µg/mL (≈ 0.35 µM) | –
CN1CCC2CN(c3cc4c(cc3F)c(=O)c(C(=O)O)cn4C3CC3)CC21 (stereo not shown) [Example 17, 1-cyclopropyl-6-fluoro-1,4-dihydro-7-(2-methyl-2,7-diazabicyclo[3.3.0]oct-7-yl)-4-oxo-3-quinolinecarboxylic acid] | 8 µg/mL (≈ 21.5 µM) | 2 µg/mL (≈ 5.38 µM) | 0.5 µg/mL (≈ 1.35 µM) | 0.125 µg/mL (≈ 0.337 µM) | 0.5 µg/mL (≈ 1.35 µM) | 1 µg/mL (≈ 2.69 µM) | 8 µg/mL (≈ 21.5 µM) | 0.5 µg/mL (≈ 1.35 µM) | 0.5 µg/mL (≈ 1.35 µM) | 0.5 µg/mL (≈ 1.35 µM) | –
CN1CCC2CN(c3c(F)cc4c(=O)c(C(=O)O)cn(C5CC5)c4c3F)CC21 (stereo not shown) [Example 18, 1-cyclopropyl-6,8-difluoro-1,4-dihydro-7-(2-methyl-2,7-diazabicyclo[3.3.0]oct-7-yl)-4-oxo-3-quinolinecarboxylic acid] | 1 µg/mL (≈ 2.57 µM) | 0.5 µg/mL (≈ 1.28 µM) | 0.06 µg/mL (≈ 0.154 µM) | 0.03 µg/mL (≈ 0.077 µM) | 0.125 µg/mL (≈ 0.321 µM) | 0.25 µg/mL (≈ 0.642 µM) | 4 µg/mL (≈ 10.3 µM) | 0.06 µg/mL (≈ 0.154 µM) | 0.125 µg/mL (≈ 0.321 µM) | 0.125 µg/mL (≈ 0.321 µM) | –
CS(=O)(=O)O.O=C(O)c1cn(C2CC2)c2c(F)c(N3CC4CCCNC4C3)c(F)cc2c1=O (stereo not shown) [Example 43A, 1-cyclopropyl-7-(2,8-diazabicyclo[4.3.0]non-8-yl)-6,8-difluoro-1,4-dihydro-4-oxo-3-quinolinecarboxylic acid mesylate] | – | – | – | – | – | – | – | – | – | – | readily soluble in water
